Assay results as given in patent US12590106B2, “Spiromacrocyclic orexin 2 receptor agonists” (H. Lundbeck A/S, priority 2023, dated 2026).

Molecular target: T1, human Ox2R (Homo sapiens, UniProt O43614)
T1 construct: The gene encoding hOx2R was subcloned into the expression plasmid pcDNA5/FRT/TO; expressed in transfected cells; host or cells: CHO Flp-In cells (pcDNA5/FRT/TO with pOG44 Flp recombinase vector, hygromycin B selection)
T1 sequence (O43614 1-444): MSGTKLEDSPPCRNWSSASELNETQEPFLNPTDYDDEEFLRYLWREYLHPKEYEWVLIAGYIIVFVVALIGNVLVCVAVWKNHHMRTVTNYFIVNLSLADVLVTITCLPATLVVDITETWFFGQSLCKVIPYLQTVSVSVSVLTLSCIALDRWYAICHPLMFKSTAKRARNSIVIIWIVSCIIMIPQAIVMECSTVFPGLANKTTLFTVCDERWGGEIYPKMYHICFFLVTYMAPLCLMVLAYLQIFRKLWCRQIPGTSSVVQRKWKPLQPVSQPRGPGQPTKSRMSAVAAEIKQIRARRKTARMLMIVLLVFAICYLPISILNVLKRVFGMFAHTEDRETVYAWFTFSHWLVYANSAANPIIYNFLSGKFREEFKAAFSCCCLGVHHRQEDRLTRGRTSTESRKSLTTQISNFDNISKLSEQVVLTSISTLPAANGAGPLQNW
Assay: Measurement of OX2R agonist activity (cell-based calcium release assay)
Conditions: hOx2R-CHO Flp-In cells, n≥2 tests; for EC50: intracellular calcium, read-out: EC50; for Emax / Emax (%): normalized to assay buffer (0%) and 10 μM Danavorexton (100%); for Emax: read-out: Emax (%)
Method in brief: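 CHO Flp-In cells stably expressing human Ox2R, dye-loaded 1 h at 37 °C in HBSS/20 mM HEPES pH 7.4 with 2.5 mM probenecid and 10 mM CaCl2, then stimulated with compound.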

| Molecule | EC50 [nM] | Emax [%] | Emax (%) |
| --- | --- | --- | --- |
| CS(=O)(=O)N[C@H]1CC[C@@]2(Cc3cccc(c3)-c3cccc(n3)OCc3coc2n3)C1 [Example 47, N-[(1′S,13R)-spiro[7,11-dioxa-20,21-diazatetracyclo[13.3.1.12,6.19,12]henicosa-1(19),2,4,6(21),9,12(20),15,17-octaene-13,3′-cyclopentane]-1′-yl]methanesulfonamide] | 8.6 | 96 | – |
| Cc1nc2c(s1)-c1cc(ccc1F)C[C@@]1(CC[C@H](NS(C)(=O)=O)C1)c1nc(co1)CO2 [Example 102, N-[(1′S,13R)-18-fluoro-4-methyl-spiro[7,11-dioxa-3-thia-5,20-diazatetracyclo[13.3.1.19,12.02,6]icosa-1(18),2(6),4,9,12(20),15(19),16-heptaene-13,3′-cyclopentane]-1′-yl]methanesulfonamide] | 2.1 | 110 | – |
| O=S(=O)(N[C@H]1CC[C@@]2(Cc3cccc(c3)-c3cccc(F)c3OCc3coc2n3)C1)C1CCOC1 (stereo partly drawn) [Example 79, N-[(1′S,14R)-6-fluorospiro[8,12-dioxa-21-azatetracyclo[14.3.1.110,13.02,7]henicosa-1(19),2,4,6,10,13(21),16(20),17-octaene-14,3′-cyclopentane]-1′-yl]tetrahydrofuran-3-sulfonamide] | 20 | 100 | – |
| N-[(3′R,14S)-6,17,19-trifluorospiro[8,12-dioxa-21-azatetracyclo[14.3.1.110,13.02,7]henicosa-1(19),2,4,6,10,13(21),16(20),17-octaene-1′,5′-tetrahydrofuran′-3′-yl]methanesulfonamide or N-[(3′S,14R)-6,17,19-trifluorospiro[8,12-dioxa-21-azatetracyclo[14.3.1.110,13.02,7]henicosa-1(19),2,4,6,10,13(21),16(20),17-octaene-1′,5′-tetrahydrofuran′-3′-yl]methanesulfonamide [Example 109] | 1.6 | – | 99 |
| C[C@@H]1Oc2ccccc2-c2cccc(c2)C[C@@]2(CC[C@H](NS(C)(=O)=O)C2)c2nccc1n2 (single isomer, unassigned) [Example 89, N-[(1′S,9S*,15R)-9-methylspiro[8-oxa-13,22-diazatetracyclo[15.3.1.110,14.02,7]docosa-1(21),2,4,6,10,12,14(22),17,19-nonaene-15,3′-cyclopentane]-1′-yl]methanesulfonamide] | 3.7 | 110 | – |
| O=S(=O)(N[C@H]1CC[C@@]2(Cc3ccc(F)c(c3)-c3cccc(F)c3OCc3coc2n3)C1)C1CC1 [Example 33, N-[(1′S,14R)-6,19-difluorospiro[8,12-dioxa-21-azatetracyclo[14.3.1.110,13.02,7]henicosa-1(19),2,4,6,10,13(21),16(20),17-octaene-14,3′-cyclopentane]-1′-yl]cyclopropanesulfonamide] | 0.1 | 97 | – |
| CS(=O)(=O)N[C@H]1CC[C@@]2(Cc3ccc(F)c(c3)-c3ccc(F)c(F)c3OCc3ccnc2n3)C1 [Example 87, N-[(1′S,15R)-5,6,20-trifluorospiro[8-oxa-13,22-diazatetracyclo[15.3.1.110,14.02,7]docosa-1(21),2,4,6,10,12,14(22),17,19-nonaene-15,3′-cyclopentane]-1′-yl]methanesulfonamide] | 2 | 100 | – |
| CS(=O)(=O)N[C@H]1CC[C@]2(CC1)Cc1cc(c(F)cc1F)-c1cccc(F)c1OCc1coc2n1 [Example 96, trans-N-(6,17,19-trifluorospiro[8,12-dioxa-21-azatetracyclo[14.3.1.110,13.02,7]henicosa-1(19),2,4,6,10,13(21),16(20),17-octaene-14,4′-cyclohexane]-1′-yl)methanesulfonamide] | 0.23 | 98 | – |
| CS(=O)(=O)N[C@H]1CC[C@@]2(Cc3cccc(c3)-c3cccc(n3)OCCc3coc2n3)C1 [Example 4, N-[(1′S,8R)-spiro[10,15-dioxa-20,21-diazatetracyclo[14.3.1.12,6.19,12]docosa-1(19),2(22),3,5,9(21),11,16(20),17-octaene-8,3′-cyclopentane]-1′-yl]methanesulfonamide] | 330 | 100 | – |
| CS(=O)(=O)N[C@@H]1CC[C@]2(Cc3ccc(F)c(c3)-c3cccc(F)c3OCc3coc2n3)C1 [Example 99, N-[(1′R,14S)-6,19-difluorospiro[8,12-dioxa-21-azatetracyclo[14.3.1.110,13.02,7]henicosa-1(19),2,4,6,10,13(21),16(20),17-octaene-14,3′-cyclopentane]-1′-yl]methanesulfonamide] | 3.3 | 96 | – |
| CNS(=O)(=O)N[C@H]1CC[C@@]2(Cc3ccc(F)c(c3)-c3ccccc3OCc3coc2n3)C1 [Example 12, (1′S,14R)-19-fluoro-N-(methylsulfamoyl)spiro[8,12-dioxa-21-azatetracyclo[14.3.1.110,13.02,7]henicosa-1(19),2,4,6,10,13(21),16(20),17-octaene-14,3′-cyclopentane]-1′-amine] | 0.19 | 100 | – |
| CS(=O)(=O)N[C@H]1CC[C@@]2(CO[C@H]3CC[C@H](CC3)c3cccnc3OCc3coc2n3)C1 [Example 43, N-[(1s,1′S,14R,17s)-spiro[8,12,16-trioxa-6,22-diazatetracyclo[15.2.2.110,13.02,7]docosa-2,4,6,10,13(22)-pentaene-14,3′-cyclopentane]-1′-yl]methanesulfonamide] | 0.69 | 100 | – |
| CS(=O)(=O)N[C@H]1CC[C@@]2(Cc3cc(c(F)cn3)-c3cccc(F)c3OCc3coc2n3)C1 [Example 106, N-[(1′S,14S)-6,19-difluorospiro[8,12-dioxa-17,21-diazatetracyclo[14.3.1.110,13.02,7]henicosa-1(20),2,4,6,10,13(21),16,18-octaene-14,3′-cyclopentane]-1′-yl]methanesulfonamide] | 26 | 98 | – |
| N-[(3′R,14S)-6,17,19-trifluorospiro[8,12-dioxa-21-azatetracyclo[14.3.1.110,13.02,7]henicosa-1(19),2,4,6,10,13(21),16(20),17-octaene-1′,5′-tetrahydrofuran′-3′-yl]methanesulfonamide or N-[(3′S,14R)-6,17,19-trifluorospiro[8,12-dioxa-21-azatetracyclo[14.3.1.110,13.02,7]henicosa-1(19),2,4,6,10,13(21),16(20),17-octaene-1′,5′-tetrahydrofuran′-3′-yl]methanesulfonamide [Example 110] | 0.32 | – | 96 |
| CS(=O)(=O)N[C@H]1CC[C@@]2(Cc3ccc(F)c(c3)-c3cccc(F)c3OCc3noc2n3)C1 [Example 112, N-[(1′S,14R)-6,19-difluorospiro[8,12-dioxa-11,21-diazatetracyclo[14.3.1.110,13.02,7]henicosa-1(20),2,4,6,10,13(21),16,18-octaene-14,3′-cyclopentane]-1′-yl]methanesulfonamide] | 1.3 | 94 | – |
| CS(=O)(=O)N[C@H]1CC[C@@]2(Cc3cc(ccc3F)-c3cccc(F)c3OCc3coc2n3)C1 [Example 17, N-[(1′S,14R)-6,17-difluorospiro[8,12-dioxa-21-azatetracyclo[14.3.1.110,13.02,7]henicosa-1(19),2,4,6,10,13(21),16(20),17-octaene-14,3′-cyclopentane]-1′-yl]methanesulfonamide] | 0.22 | 96 | – |
| CS(=O)(=O)N[C@H]1CC[C@]2(CC1)Cc1cccc(c1)-c1cccc(F)c1OCc1coc2n1 [Example 75, N-(cis)-(6-fluorospiro[8,12-dioxa-21-azatetracyclo[14.3.1.110,13.02,7]henicosa-1(20),2,4,6,10,13(21),16,18-octaene-14,4′-cyclohexane]-1′-yl)methanesulfonamide] | 1.4 | 100 | – |
| CS(=O)(=O)N[C@H]1CC[C@@]2(CO[C@H]3C[C@H](C3)c3ccccc3OCc3coc2n3)C1 [Example 72, N-[(1′S,10r,12s,15S)-spiro[3,13,17-trioxa-19-azatetracyclo[14.2.1.110,12.04,9]icosa-1(18),4,6,8,16(19)-pentaene-15,3′-cyclopentane]-1′-yl]methanesulfonamide] | 190 | 97 | – |
| CS(=O)(=O)N[C@H]1CC[C@@]2(Cc3ccc(F)c(c3)-c3ccc(F)c(F)c3OCc3coc2n3)C1 [Example 14, N-[(1′S,14R)-5,6,19-trifluorospiro[8,12-dioxa-21-azatetracyclo[14.3.1.110,13.02,7]henicosa-1(19),2,4,6,10,13(21),16(20),17-octaene-14,3′-cyclopentane]-1′-yl]methanesulfonamide] | 0.62 | 97 | – |
| CS(=O)(=O)N[C@H]1CC[C@@]2(Cc3cc(c(F)cc3Cl)-c3cccc(F)c3OCc3coc2n3)C1 [Example 32, N-[(1′S,14R)-17-chloro-6,19-difluoro-spiro[8,12-dioxa-21-azatetracyclo[14.3.1.110,13.02,7]henicosa-1(19),2,4,6,10,13(21),16(20),17-octaene-14,3′-cyclopentane]-1′-yl]methanesulfonamide] | 0.28 | 98 | – |
